{"source": "paper PMC5938390", "about": "“Tachyplesin Causes Membrane Instability That Kills Multidrug-Resistant Bacteria by Inhibiting the 3-Ketoacyl Carrier Protein Reductase FabG” (Frontiers in Microbiology, 2018)", "key": {"P. aeruginosa 1409 [1]": {"test_system": "P. aeruginosa 1409", "assay_type": "cell-based, Pseudomonas aeruginosa", "conditions": "Pa; Ta 16 μg/ml, 30 min, 37°C", "method": "(§1) The Vitek 32 system (bioMerieux, France) and 16S rDNA sequencing were used to verify the clinical isolates A. baumannii 1408, P. aeruginosa 1409, Klebsiella pneumoniae 5 and E. coli 513, which were grown overnight in Luria-Bertani (LB) medium at 37°C with constant shaking at 220 rpm to reach the middle of their logarithmic growth phase. […] After the addition of 2 volumes of RNAprotect Bacteria Reagent (QIAGEN) to stabilized RNA, samples were vortexed for 5 s, incubated for 5 min at room temperature (15–25°C) and collected by centrifugation at 4°C for 5 min at 4000 g.\n(§2) RNA isolation and sequencing were performed by Novogene Bioinformatics Technology Co., Ltd. (Beijing, China) as previously described ([Liu B. et al., 2014]). Clean reads were mapped to the corresponding bacterial genomes using Bowtie 2 software ([Langmead and Salzberg, 2012]). Gene expression was calculated using the FPKM (expected number of fragments per kilobase of transcript sequence per millions of base pairs sequenced) method with HTSeq software (union model) ([Anders et al., 2015]). Differentially expressed genes were selected based on the DESeq R package with Padj values < 0.05 ([Anders and Huber, 2010]). KEGG pathway analysis was performed using KOBAS (2.0), and the corrected p value cut-off was set at 0.05 ([Li et al., 2015])."}, "FabG from S. aureus": {"biological_target": "T1, FabG from S. aureus (Staphylococcus aureus, UniProt P0A0H9)", "T1 construct": "His tag (C); made in house; host or cells: E. coli BL21 DE3 (vector pET28a)", "T1 sequence (P0A0H9 1-246)": "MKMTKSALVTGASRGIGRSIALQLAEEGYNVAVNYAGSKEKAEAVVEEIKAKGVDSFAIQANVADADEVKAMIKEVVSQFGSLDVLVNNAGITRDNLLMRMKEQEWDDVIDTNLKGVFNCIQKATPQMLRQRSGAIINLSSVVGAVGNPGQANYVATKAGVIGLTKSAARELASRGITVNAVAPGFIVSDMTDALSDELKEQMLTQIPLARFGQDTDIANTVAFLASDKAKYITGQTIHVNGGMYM", "assay": "FabG enzyme activity inhibition assay (NADPH consumption, A340)", "assay_type": "biochemical", "conditions": "higher concentrations (7.5 and 15 μM) of peptide, 6 μM FabG, 5 min, room temperature", "method": "A 96-well plate with a final total volume of 200 μl per reaction was used for the FabG inhibition assay. Briefly, tachyplesin III (15, 7.5, and 3.75 μM) was incubated with 1.5 μM FabG from E. coli or 6 μM FabG from S. aureus at room temperature for 5 min, before the addition of 300 μM nicotinamide adenine dinucleotide phosphate (NADPH, Sigma) and then 150 μM acetoacetyl-CoA (Sigma) to initiate the reaction. The decrease in absorbance at 340 nm was recorded over 5 min to reflect the consumption of NADPH.\nFIGURE 7 Tachyplesin III binding with FabG inhibits its enzyme activities in vitro, probably by blocking the active site. Binding interactions between tachyplesin III and FabG from E. coli (A) or from S. aureus (E) were analyzed by surface plasmon resonance (SPR) with a Biocore 3000 (Biocore, Piscataway, NJ, United States). Black line: 1.25 μg/mL FabG; green line: 2.5 μg/mL FabG; purple line: 5 μg/mL FabG; and red line: 10 μg/mL FabG. […] Tachyplesin was processed with Chemdraw 11.0 according to the structure of tachyplesin I (PDB code 2RTV) and then docked to the active site of FabG from E. coli (PDB code 1Q7B) or S. aureus (PDB code 3SJ7) with AutoDock4 using the default settings. […] Statistical significance was analyzed by one-way ANOVA followed by the Newman–Keuls multiple-comparisons test, ^∗∗p < 0.01, ^∗p < 0.05."}, "FabG gene": {"test_system": "FabG gene", "assay": "FabG transcription level by quantitative real-time PCR", "assay_type": "cell-based, A. baumannii, E. coli, K. pneumoniae, P. aeruginosa", "conditions": "all four bacteria, RNAs from transcriptome analysis (16 μg/ml, 30 min), 2^-ΔΔCT, rpsL reference", "method": "Quantitative real-time PCR (RT-PCR) was performed following the 2^-ΔΔCT method with RNAs from the aforementioned transcriptome analysis ([Livak and Schmittgen, 2001]; [Liu C. et al., 2014]). Untreated pathogen strains were used as the calibrator strains, and corresponding ribosomal rpsL genes were used as housekeeping reference genes with the primers shown in Supplementary Table S1 ([Dumas et al., 2006]).\nFIGURE 5 Expression of FabG increased after tachyplesin treatment. Quantitative real-time PCR was performed following the 2^-ΔΔCT method. Untreated pathogen strains were used as the calibrator strains, and the corresponding ribosomal rpsL genes were used as housekeeping reference gene with the primers shown in Supplementary Table S1."}, "[2]": {"test_system": "P. aeruginosa strain 1409", "assay": "Membrane rupture by propidium iodide staining", "assay_type": "cell-based, Pseudomonas aeruginosa", "conditions": "LB medium, 25°C, 1 h, then PI 10 μg/ml 30 min", "method": "These studies were carried out as we previously reported with slight modifications and briefly introduced as follows ([Liu et al., 2017]). […] Cytotoxicity in different cell lines was assessed using the Cell Proliferation Kit II (XTT) (Roche), and cytotoxicity in hemocytes was evaluated by the increase in the absorbance at 540 nm after peptide incubation. Membrane rupture was indicated by the entrance of the DNA-binding fluorescent dye PI into MDR clinical isolates of P. aeruginosa strain 1409. Membrane translocation of N-terminal FITC-conjugated tachyplesin III (purity ≥ 95%, synthesized by GL Biochem Co., Ltd, Shanghai, China) into MDR clinical isolates of Acinetobacter baumannii strain 1408 were detected by confocal laser-scanning microscopy.\nAfter centrifugation at 3000 g for 10 min, cells were resuspended in the same volume of PBS (phosphate-buffered saline, 8 g/L NaCl, 0.2 g/L KCl, 1.44 g/L Na2HPO4, 0.24 g/L KH2PO4, pH 7.4). Then, PI was added to a final concentration of 10 μg/ml. After 30 min of incubation at 25°C, the cells were washed three times with PBS and immediately imaged with a fluorescence microscope."}, "P. aeruginosa 1409 [3]": {"test_system": "P. aeruginosa 1409", "assay": "MIC against MDR clinical isolate", "assay_type": "cell-based, Pseudomonas aeruginosa", "conditions": "P. aeruginosa 1409"}, "K. pneumoniae 5": {"test_system": "K. pneumoniae 5", "assay": "Transcriptome analysis (RNA sequencing, FPKM, DESeq)", "assay_type": "cell-based, Klebsiella pneumoniae", "conditions": "Kp; Ta 16 μg/ml, 30 min, 37°C", "method": "as §1, §2"}, "A. baumannii 1408": {"test_system": "A. baumannii 1408", "assay": "Transcriptome analysis (RNA sequencing, FPKM, DESeq)", "assay_type": "cell-based, Acinetobacter baumannii", "conditions": "Ab; Ta 16 μg/ml, 30 min, 37°C", "method": "as §1, §2"}, "E. coli 513": {"test_system": "E. coli 513", "assay": "MIC against clinical isolate", "assay_type": "cell-based, Escherichia coli"}}, "note": "Positions of bridges follow the written chain, without caps; N, C: chain ends. Residues, ends and D or L forms follow the SMILES beside them.", "data": [{"smiles": "CC[C@H](C)[C@@H]1NC(=O)CNC(=O)[C@H](CCCNC(=N)N)NC(=O)[C@H](Cc2ccc(O)cc2)NC(=O)[C@@H]2CSSC[C@H](NC1=O)C(=O)N[C@@H](Cc1ccc(O)cc1)C(=O)N[C@@H](CCCNC(=N)N)C(=O)N[C@@H](CCCCN)C(=O)N[C@H](C(=O)N[C@@H](CCCNC(=N)N)C(N)=O)CSSC[C@H](NC(=O)[C@H](Cc1c[nH]c3ccccc13)NC(=O)[C@@H](N)CCCCN)C(=O)N[C@@H](Cc1ccccc1)C(=O)N[C@@H](CCCNC(=N)N)C(=O)N[C@@H](C(C)C)C(=O)N2", "note": "[tachyplesin III] (H-KWCFRVCYRGICYRKCR-NH2; disulfide 3-16, 7-12 (inferred); N-terminus and C-terminus assumed)", "values": [{"measurement": "Fold change after Ta treatment, gene PADK2_09275 (3-hydroxyacyl-CoA dehydrogenase)", "setting": "P. aeruginosa 1409 [1]", "result": 2.04}, {"measurement": "Fold change after Ta treatment, gene PADK2_25405 (3-ketoacyl-acyl carrier protein reductase)", "setting": "P. aeruginosa 1409 [1]", "result": 2.71}, {"measurement": "FabG activity", "setting": "FabG from S. aureus", "result": "almost completely blocked"}, {"measurement": "FabG expression by quantitative real-time PCR", "setting": "FabG gene", "result": "elevations"}, {"measurement": "membrane integrity (PI fluorescence)", "setting": "[2]; 1/4× MIC", "result": "slight membrane breakage in a small proportion of the treated bacteria"}, {"measurement": "membrane integrity (PI fluorescence)", "setting": "[2]; 4× MIC (high concentration)", "result": "complete membrane breakage of nearly all of the treated bacteria"}, {"measurement": "16 μg/ml tachyplesin III expressed as multiple of MIC", "setting": "P. aeruginosa 1409 [3]", "result": 2, "unit": "× MIC"}, {"measurement": "Fold change after Ta treatment, gene KPNJ2_01584 (Enoyl-CoA hydratase)", "setting": "K. pneumoniae 5", "result": 2}, {"measurement": "Fold change after Ta treatment, gene KPNJ2_03426 (3-ketoacyl-acyl carrier protein reductase)", "setting": "K. pneumoniae 5", "result": 1.83}, {"measurement": "Fold change after Ta treatment, gene A1S_2061 (3-ketoacyl-acyl carrier protein reductase)", "setting": "A. baumannii 1408", "result": 2.89}, {"measurement": "16 μg/ml tachyplesin III expressed as multiple of MIC", "setting": "E. coli 513", "result": 4, "unit": "× MIC"}]}]}
